“Also recorded” adds a separate entry of the source.
Key:
RSV [1] = test: Quantitative RSV plaque assay in HEp2 cells; assay type: cell-based, human RSV A2 strain; settings: for antiviral activity against RSV by plaque assay: 50 μg/mL lipid, HEp2, 37° C.
Description: Viral stocks were propagated in HEp2 cell monolayers using DMEM/Ham's F12 Medium (GIBCO), plus 5% bovine growth serum (Hyclone) with 1× penicillin streptomycin, and virus was purified using methods previously described [M. Numata, H. W. Chu, A. Dakhama, and D. R. Voelker, “Pulmonary surfactant phosphatidylglycerol inhibits respiratory syncytial virus-induced inflammation and infection.,” Proc. Natl. Acad. Sci. U.S.A., vol. 107, no. 1, pp. 320-5, 2010.]. Viral titers and growth were measured by plaque assays [J. L. McKimm-Breschkin, “A simplified plaque assay for respiratory syncytial virus—direct visualization of plaques without immunostaining,” 2004.]. The antiviral activity of xylitol-headgroup lipids was determined by in vitro RSV infection in the presence or absence of lipid and infectious particles were quantified by viral plaque assay. HEp2 cells were plated at a density of 1.8×10^6 per well in a 6 well plate 24 hours prior to infection in order to create a uniform monolayer. Cell monolayers were infected for 2 hours at 37° C. with serial dilutions of RSV alone and RSV in combination with 50 μg/mL of phospholipid. Following the 2-hour period of infection, the inoculum was removed and 3 mL of medium containing 0.3% agarose was added, allowed to solidify and placed in a 37° C. incubator for 6 days. On day 6 the cells were fixed overnight with formalin and then stained with a neutral red stain and viral plaques were quantified visually.
An optimized quantitative plaque assay (described for RSV by J. L. McKimm-Breschkin, “A simplified plaque assay for respiratory syncytial virus-direct visualization of plaques without immunostaining,” 2004) was applied to survey the ability of PX lipids to inhibit RSV infection. The human epithelial cell line, HEp2, was seeded at a density of 1.8×10^6 per well in a 6-well plate 24 hours in advance of infection. Reaction conditions for infection took place in serum-free medium and were combined before addition to cells. A standard dilution of virus alone was prepared and 50 μg/mL phospholipid in combination with RSV was also prepared. Cells were washed with PBS to remove any serum prior to infection and then 500 μL of virus in various combinations with lipids was added to each well and incubated at 37° C. for 2 hours. Plates were rotated every 20 minutes for even distribution of viral infection. After infection, the viral inoculum was removed and medium containing 0.3% agarose was added to each well and allowed to solidify then placed back into the incubator at 37° C. for 6 days. On day 6, cells were fixed overnight then the agarose layer was removed and wells were stained with neutral red and viral plaques counted. POPG is a known inhibitor of RSV infection in vitro and in vivo. […] Ester-linked saturated xylitol lipids composed the moderately effective antivirals. The sole xylitol analog that was determined ineffective was saturated and ether-linked.

RSV [2] = test: Binding of RSV to solid phase phospholipid; set-up: species or system human RSV A2 strain; settings: 0.625 nmol lipid, 37° C., 1 hour
Description: Lipids were dried under a stream of nitrogen and resuspended in 100% ethanol, and 0.625 nmol was added in a 40 μL volume to each well of a half-area, 96-well plate. The solvent was evaporated under warm air for 90 minutes. 120 μL of blocking solution (150 mM NaCl, 20 mM Tris pH 7, 5 mM CaCl2) containing 3% BSA w/v) was added to each well and incubated for 1 hour at room temperature. Wells were washed 3 times with (150 mM NaCl, 20 mM Tris pH 7, 5 mM CaCl2)) followed by the addition of 40 μL of serial dilutions of RSV (2.5×10^7, 1.25×10^7, 0.625×10^7, 0.3125×10^7, 0.15625×10^7 pfu/mL) in blocking solution to each well and the plate was incubated at 37° C. for 1 hour. The wells were washed 3 times and 40 μL of α-RSV:HRP antibody diluted 1:500 was added and incubated at 37° C. for 1 hour. After washing out the primary antibody, the peroxidase activity was detected with the substrate o-phenylenediamine and the absorbance read at 490 nm to detect degree of binding.
A quantitative plaque assay takes a week to develop without accounting for maintenance of cells. In order to determine the mechanism of antiviral action of PX analogs and explore a faster assay that could easily be mass-produced, lipids were assessed for their ability to bind RSV. A solid phase of 0.625 nmol of lipid was dried onto a 96-well plate. Binding of fluid-phase RSV to the lipids was assessed at viral concentrations of 8×105 to 2.5×10^7 pfu/mL, at 37° C. for 1 hour. Viral binding was detected with a primary anti-RSV antibody conjugated to HRP. The peroxidase reaction was developed with o-phenylenediamine and absorbance measurement at 490 nm.

| SMILES | antiviral activity against RSV by plaque assay (RSV [1]) | reduction of RSV viral infection by a factor of (RSV [1]; 50 μg/ml lipid, 10^4 infectious virus/ml, HEp2) | binding of solid phase lipid to RSV (RSV [2]) |
| --- | --- | --- | --- |
| CCCCCCCC/C=C\CCCCCCCC(=O)O[C@H](COC(=O)CCCCCCCCCCCCCCC)COP(=O)([O-])OCC[N+](C)(C)C [POPC, 1-palmitoyl-2-oleoyl-sn-glycero-3-phosphocholine, reference compound] | ineffective as an antiviral | – | – |
| CCCCCCCC/C=C\CCCCCCCC(=O)O[C@H](COC(=O)CCCCCCCCCCCCCCC)COP(=O)(O)OCC(O)CO (some centres unmarked) [POPG, palmitoyl-oleoyl-phosphatidylglycerol, reference compound] | – | > 10^4 | – |
| CCCCCCCCC=CCCCCCCCCOCC(COP(=O)(O)OCC(O)C(O)C(O)CO)OCCCCCCCCC=CCCCCCCCC (mixture of isomers) [18:1 DEPX, sn-1-O-octadecenyl, sn-2-O-octadecenyl sn-3 glycerol phosphoxylitol] | inhibit infection and propagation of RSV | – | affinity comparable to that of POPG |
| CCCCCCCCCCCCCCCC(=O)OCC(COP(=O)(O)OCC(O)C(O)C(O)CO)OC(=O)CCCCCCCCCCCCCCC (centres unmarked) [DPPX, sn-1-palmitoyl, sn-2-palmitoyl sn-3 glycerol phosphoxylitol] | moderate antiviral activity | – | bound strongly |
| CCCCCCCC/C=C\CCCCCCCC(=O)O[C@H](COC(=O)CCCCCCCCCCCCCCC)COP(=O)(O)OCC(O)C(O)C(O)CO (some centres unmarked) [POPX, sn-1-palmitoyl, sn-2-oleoyly sn-3 glycerol phosphoxylitol] | – | – | affinity comparable to that of POPG |
| CCCCCCC=CCCCCCCCC(=O)OCC(COP(=O)(O)OCC(O)C(O)C(O)CO)OC(=O)CCCCCCCC=CCCCCCC (mixture of isomers) [16:1 DPPX, sn-1-palmitoleoyl, sn-2-palmitoleoyl sn-3 glycerol phosphoxylitol] | – | – | only bind weakly |
| CCCCCCCCC=CCCCCCCCC(=O)OCC(COP(=O)(O)OCC(O)C(O)C(O)CO)OC(=O)CCCCCCCC=CCCCCCCCC (mixture of isomers) [DOPX, sn-1-oleoyl, sn-2-oleoyl sn-3 glycerol phosphoxylitol] | inhibit infection and propagation of RSV | – | only bind weakly |
| CCCCCCCCCCCCCC(=O)OC[C@H](COP(=O)(O)OCC(O)C(O)C(O)CO)OC(=O)CCCCCCCCCCCCC (mixture of isomers) [DMPX, sn-1-myristoyl, sn-2-myristoyl sn-3 glycerol phosphoxylitol] | moderate antiviral activity | – | bound strongly |
| CCCCCCCCCCCCCCOC[C@H](COP(=O)(O)OCC(O)C(O)C(O)CO)OCCCCCCCCCCCCCC (mixture of isomers) [14:0 DEPX, sn-1-O-myristyl, sn-2-O-myristyl sn-3 glycerol phosphoxylitol] | ineffective as an antiviral; also recorded: ineffective at preventing RSV infection; also recorded: did not inhibit plaque formation | – | bound to the RSV virus strongly |
| CCCCCCCCCCCCCCCCCC(=O)OCC(COP(=O)(O)OCC(O)C(O)C(O)CO)OC(=O)CCCCCCCCCCCCCCCCC (centres unmarked) [DSPX, sn-1-stearoyl, sn-2-stearoyl sn-3 glycerol phosphoxylitol] | moderate antiviral activity | – | bound strongly |
| CCCCCC=CCC=CCCCCCCCC(=O)OCC(COP(=O)(O)OCC(O)C(O)C(O)CO)OC(=O)CCCCCCCC=CCC=CCCCCC (mixture of isomers) [18:2 DLPX, sn-1-linoleoyl, sn-2-linoleoyl sn-3 glycerol phosphoxylitol] | – | – | only bind weakly |
